Values after ≈ are worked out from the molar mass of the structure shown.
Columns and labels:
Pichia sporocuriosa [1] = assay: Antifungal activity against Issatchenkia hanoiensis MTCC 4755; assay type: functional
Raoultella planticola [2] = assay: Bactericidal activity against Klebsiella planticola MTCC 530; assay type: functional
Candida albicans [3] = assay: Fungicidal activity against Candida albicans MTCC 183; assay type: functional
Staphylococcus aureus [4] = assay: Inhibition of biofilm formation in Staphylococcus aureus […] incubated for 24 hrs by crystal violet staining based microtiter plate method; assay type: functional, organism-based
Escherichia coli [5] = assay: Bactericidal activity against Escherichia coli MTCC 739; assay type: functional
Candida albicans [6] = assay: Antifungal activity against Candida albicans MTCC 183; assay type: functional
Candida albicans [7] = assay: Antifungal activity against Candida albicans MTCC 3958; assay type: functional
Raoultella planticola [8] = assay: Inhibition of biofilm formation in Klebsiella planticola MTCC 530 incubated for 24 hrs by crystal violet staining based microtiter plate method; assay type: functional, organism-based; settings: Klebsiella planticola, MTCC 530, 24 h; read-out: IC50
Candida albicans [9] = assay: Antifungal activity against Candida albicans MTCC 3018; assay type: functional
Nakaseomyces glabratus = assay: Antifungal activity against Candida glabrata MTCC 3019; assay type: functional
Candida albicans [10] = assay: Antifungal activity against Candida albicans MTCC 227; assay type: functional
Candida albicans [11] = assay: Fungicidal activity against Candida albicans MTCC 854; assay type: functional
[12] = Cytotoxicity against human THP-1 cells; assay type: cell-based
Pseudomonas aeruginosa [13] = assay: Bactericidal activity against Pseudomonas aeruginosa MTCC 2453; assay type: functional
[14] = Selectivity index, ratio of CC50 for human THP-1 cells to MIC for Staphylococcus aureus MTCC 96; assay type: toxicity
THP-1 [15] = assay: Cytotoxicity against human THP-1 cells assessed as reduction in cell viability at 200 uM by MTT assay; assay type: cell-based; settings: thp-1, 200 µM
Candida albicans [16] = assay: Antifungal activity against Candida albicans MTCC 854; assay type: functional
THP-1 [17] = assay: Cytotoxicity against human THP-1 cells assessed as cell damage at 200 uM by LDH assay; assay type: cell-based; settings: thp-1, 200 µM
Candida albicans [18] = assay: Antifungal activity against Candida albicans MTCC 1637; assay type: functional
Micrococcus luteus [19] = assay: Inhibition of biofilm formation in Micrococcus luteus MTCC 2470 incubated for 24 hrs by crystal violet staining based microtiter plate method; assay type: functional, organism-based
Candida albicans [20] = assay: Inhibition of biofilm formation in Candida albicans MTCC 3017 incubated for 24 hrs by crystal violet staining based microtiter plate method; assay type: functional, organism-based
Candida albicans [21] = assay: Antifungal activity against Candida albicans MTCC 4748; assay type: functional
Pseudomonas aeruginosa [22] = assay: Antibacterial activity against Pseudomonas aeruginosa MTCC 2453 assessed as inhibition of bacterial growth by microtiter broth dilution method; assay type: functional
Bacillus subtilis [23] = assay: Inhibition of biofilm formation in Bacillus subtilis MTCC 121 incubated for 24 hrs by crystal violet staining based microtiter plate method; assay type: functional, organism-based; settings: Bacillus subtilis, MTCC 121, 24 h; read-out: IC50
Pseudomonas aeruginosa [24] = assay: Inhibition of biofilm formation in Pseudomonas aeruginosa MTCC 2453 incubated for 24 hrs by crystal violet staining based microtiter plate method; assay type: functional, organism-based; settings: Pseudomonas aeruginosa, MTCC 2453, 24 h; read-out: IC50
Staphylococcus aureus [25] = assay: Bactericidal activity against Staphylococcus aureus MTCC 96; assay type: functional
Escherichia coli [26] = assay: Inhibition of biofilm formation in Escherichia coli MTCC 739 incubated for 24 hrs by crystal violet staining based microtiter plate method; assay type: functional, organism-based; settings: Escherichia coli, MTCC 739, 24 h; read-out: IC50
Staphylococcus aureus [27] = assay: Inhibition of biofilm formation in Staphylococcus aureus MLS16 MTCC 2940 incubated for 24 hrs by crystal violet staining based microtiter plate method; assay type: functional, organism-based
Candida parapsilosis = assay: Antifungal activity against Candida parapsilosis MTCC 1745; assay type: functional; settings: Lodderomyces parapsilosis
Escherichia coli [28] = assay: Antibacterial activity against Escherichia coli MTCC 739 assessed as inhibition of bacterial growth by microtiter broth dilution method; assay type: functional
Bacillus subtilis [29] = assay: Antibacterial activity against Bacillus subtilis MTCC 121 assessed as inhibition of bacterial growth by microtiter broth dilution method; assay type: functional
Micrococcus luteus [30] = assay: Bactericidal activity against Micrococcus luteus MTCC 2470; assay type: functional
Raoultella planticola [31] = assay: Antibacterial activity against Klebsiella planticola MTCC 530 assessed as inhibition of bacterial growth by microtiter broth dilution method; assay type: functional
Micrococcus luteus [32] = assay: Antibacterial activity against Micrococcus luteus MTCC 2470 assessed as inhibition of bacterial growth by microtiter broth dilution method; assay type: functional
Staphylococcus aureus [33] = assay: Antibacterial activity against Staphylococcus aureus MLS16 MTCC 2940 assessed as inhibition of bacterial growth by microtiter broth dilution method; assay type: functional
Pichia kudriavzevii = assay: Antifungal activity against Candida krusei MTCC 3020; assay type: functional
Bacillus subtilis [34] = assay: Bactericidal activity against Bacillus subtilis MTCC 121; assay type: functional
[Candida] aaseri = Antifungal activity against Candida aaseri MTCC 1962; assay type: functional; settings: Yamadazyma aaseri
Staphylococcus aureus [35] = assay: Antibacterial activity against Staphylococcus aureus MTCC 96 assessed as inhibition of bacterial growth by microtiter broth dilution method; assay type: functional
Pichia sporocuriosa [36] = assay: Fungicidal activity against Issatchenkia hanoiensis MTCC 4755; assay type: functional
Staphylococcus aureus [37] = assay: Bactericidal activity against Staphylococcus aureus MLS16 MTCC 2940; assay type: functional
[38] = Staphylococcus aureus, MTCC 92, 24 h, read-out: IC50
[39] = Micrococcus luteus, MTCC 2470, 24 h, read-out: IC50
[40] = Candida albicans, MTCC 3017, 24 h, read-out: IC50

Row | MIC (Pichia sporocuriosa [1]) [µM] | MIC (Candida albicans [6]) [µM] | MIC (Candida albicans [7]) [µM] | MIC (Pseudomonas aeruginosa [22]) [µM] | MIC (Escherichia coli [28]) [µM] | MIC (Bacillus subtilis [29]) [µM] | MIC (Micrococcus luteus [32]) [µM] | MIC (Staphylococcus aureus [33]) [µM] | MIC (Staphylococcus aureus [35]) [µM] | SMILES | MBC (Raoultella planticola [2]) [µM] | MFC (Candida albicans [3]) [µM] | MBC (Escherichia coli [5]) [µM] | IC50 (Raoultella planticola [8]) [µM] | MBC (Pseudomonas aeruginosa [13]) [µM] | IC50 (Pseudomonas aeruginosa [24]) [µM] | MBC (Staphylococcus aureus [25]) [µM] | IC50 (Escherichia coli [26]) [µM] | MBC (Micrococcus luteus [30]) [µM] | MIC (Raoultella planticola [31]) [µM] | MBC (Bacillus subtilis [34]) [µM] | also measured
1 | 6.5 (≈ 3.9 µg/mL) | 13 (≈ 7.81 µg/mL) | > 208 | 12.9 (≈ 7.75 µg/mL) | 6.5 (≈ 3.9 µg/mL) | 6.5 (≈ 3.9 µg/mL) | 12.9 (≈ 7.75 µg/mL) | > 208 | 6.5 (≈ 3.9 µg/mL) | COc1ccc(-n2cc(COc3ccc(/C=N/Nc4nc(-c5cc6c(ccc7ccccc76)oc5=O)cs4)cc3)nn2)cc1 | 12.9 (≈ 7.75 µg/mL) | 51.9 (≈ 31.2 µg/mL) | 25.9 (≈ 15.6 µg/mL) | 59.7 | 51.9 (≈ 31.2 µg/mL) | 30.4 | 21.4 (≈ 12.9 µg/mL) | 127 | 25.9 (≈ 15.6 µg/mL) | 3.1 (≈ 1.86 µg/mL) | 12.9 (≈ 7.75 µg/mL) | IC50 (Staphylococcus aureus [4]; [38]): 30.1 µM; MIC (Candida albicans [9]): > 208 µM; MIC (Nakaseomyces glabratus): > 208 µM; MIC (Candida albicans [10]): > 208 µM; MFC (Candida albicans [11]): 13 µM (≈ 7.81 µg/mL); CC50 [12]: 33.3 µM; selectivity ratio [14]: 5.12; Activity (THP-1 [15]): Toxic; MIC (Candida albicans [16]): 6.5 µM (≈ 3.9 µg/mL); Activity (THP-1 [17]): Toxic; MIC (Candida albicans [18]): > 208 µM; IC50 (Micrococcus luteus [19]; [39]): 40.2 µM; IC50 (Candida albicans [20]; [40]): 45.6 µM; MIC (Candida albicans [21]): > 208 µM; IC50 (Bacillus subtilis [23]): 37.5 µM; IC50 (Staphylococcus aureus [27]; Staphylococcus aureus, MLS16 MTCC 2940, 24 h, read-out: IC50): 51.1 µM; MIC (Candida parapsilosis): > 208 µM; MIC (Pichia kudriavzevii): > 208 µM; MIC ([Candida] aaseri): > 208 µM; MFC (Pichia sporocuriosa [36]): 13 µM (≈ 7.81 µg/mL)
2 | 6.7 (≈ 3.89 µg/mL) | 13.4 (≈ 7.78 µg/mL) | > 215 | 13.4 (≈ 7.78 µg/mL) | 6.7 (≈ 3.89 µg/mL) | 3.71 (≈ 2.15 µg/mL) | 3.71 (≈ 2.15 µg/mL) | 3.71 (≈ 2.15 µg/mL) | 3.71 (≈ 2.15 µg/mL) | COc1ccc(-n2cc(COc3ccc(/C=N/Nc4nc(-c5cc6cccc(OC)c6oc5=O)cs4)cc3)nn2)cc1 | 6.7 (≈ 3.89 µg/mL) | 26.9 (≈ 15.6 µg/mL) | 6.7 (≈ 3.89 µg/mL) | 40.2 | 28.8 (≈ 16.7 µg/mL) | 47.3 | 13.4 (≈ 7.78 µg/mL) | 68 | 13.4 (≈ 7.78 µg/mL) | 3.2 (≈ 1.86 µg/mL) | 13.4 (≈ 7.78 µg/mL) | MBC (Staphylococcus aureus [37]): 13.4 µM (≈ 7.78 µg/mL); IC50 (Staphylococcus aureus [4]; [38]): 13.5 µM; MIC (Candida albicans [9]): > 215 µM; MIC (Nakaseomyces glabratus): > 215 µM; MIC (Candida albicans [10]): > 215 µM; CC50 [12]: 34.5 µM; selectivity ratio [14]: 9.28; Activity (THP-1 [15]): Toxic; MIC (Candida albicans [16]): > 215 µM; Activity (THP-1 [17]): Toxic; MIC (Candida albicans [18]): > 215 µM; IC50 (Micrococcus luteus [19]; [39]): 155 µM; IC50 (Candida albicans [20]; [40]): 35.6 µM; MIC (Candida albicans [21]): > 215 µM; IC50 (Bacillus subtilis [23]): 16.6 µM; IC50 (Staphylococcus aureus [27]): Not Active; MIC (Candida parapsilosis): > 215 µM; MIC (Pichia kudriavzevii): > 215 µM; MIC ([Candida] aaseri): > 215 µM; MFC (Pichia sporocuriosa [36]): 13.4 µM (≈ 7.78 µg/mL)
3 |  |  |  | 2.7 (≈ 0.895 µg/mL) | 2.7 (≈ 0.895 µg/mL) | 2.7 (≈ 0.895 µg/mL) | 2.7 (≈ 0.895 µg/mL) | 2.7 (≈ 0.895 µg/mL) | 2.7 (≈ 0.895 µg/mL) | O=C(O)c1cn(C2CC2)c2cc(N3CCNCC3)c(F)cc2c1=O [CIPROFLOXACIN] | 2.7 (≈ 0.895 µg/mL) |  | 2.7 (≈ 0.895 µg/mL) | 0.8 | 2.7 (≈ 0.895 µg/mL) | 0.5 | 2.7 (≈ 0.895 µg/mL) | 0.6 | 2.7 (≈ 0.895 µg/mL) | 2.7 (≈ 0.895 µg/mL) | 2.7 (≈ 0.895 µg/mL) | MBC (Staphylococcus aureus [37]): 2.7 µM (≈ 0.895 µg/mL); IC50 (Candida albicans [20]): Not Active
4 | 7.1 (≈ 3.91 µg/mL) | 14.2 (≈ 7.82 µg/mL) | > 227 | 14.1 (≈ 7.76 µg/mL) | > 227 | 7 (≈ 3.85 µg/mL) | 7 (≈ 3.85 µg/mL) | > 227 | 14.1 (≈ 7.76 µg/mL) | COc1ccc(-n2cc(COc3ccc(/C=N/Nc4nc(-c5cc6ccccc6oc5=O)cs4)cc3)nn2)cc1 | 28.3 (≈ 15.6 µg/mL) | 56.7 (≈ 31.2 µg/mL) |  | 35.7 | 56.6 (≈ 31.2 µg/mL) | 19.5 | 28.3 (≈ 15.6 µg/mL) | 31.3 | 14.1 (≈ 7.76 µg/mL) | 14.1 (≈ 7.76 µg/mL) | 14.1 (≈ 7.76 µg/mL) | IC50 (Staphylococcus aureus [4]): Not Active; MIC (Candida albicans [9]): > 227 µM; MIC (Nakaseomyces glabratus): > 227 µM; MIC (Candida albicans [10]): > 227 µM; MFC (Candida albicans [11]): 14.2 µM (≈ 7.82 µg/mL); CC50 [12]: 36.3 µM; selectivity ratio [14]: 2.58; Activity (THP-1 [15]): Toxic; MIC (Candida albicans [16]): 7.1 µM (≈ 3.91 µg/mL); Activity (THP-1 [17]): Toxic; MIC (Candida albicans [18]): > 227 µM; IC50 (Micrococcus luteus [19]): Not Active; IC50 (Candida albicans [20]; [40]): 63.5 µM; MIC (Candida albicans [21]): > 227 µM; IC50 (Bacillus subtilis [23]): 6.6 µM; IC50 (Staphylococcus aureus [27]): Not Active; MIC (Candida parapsilosis): > 227 µM; MIC (Pichia kudriavzevii): > 227 µM; MIC ([Candida] aaseri): > 227 µM; MFC (Pichia sporocuriosa [36]): 14.2 µM (≈ 7.82 µg/mL)
